Source: article PMC6696115, “Characterization of Antimicrobial, Antioxidant, and Leishmanicidal Activities of Schiff Base Derivatives of 4-Aminoantipyrine” (Molecules, 2019)
In brackets after ≈: the same amount, converted by molar mass. Where two headings read alike, the source gives them in different places.

Experiments:
[1] = carcinogenicity group; ref IARC; cited from earlier work
[2] = DPPH radical scavenging assay; type: biochemical; settings: 30 min, room temperature, dark, absorbance 515 nm
Protocol: This was used immediately. The experimental procedure was adapted from the literature. Briefly, in a 96-well plate, 100 µL of solution of DPPH (2, 2-diphenyl-1-picrylhydrazyl) radical (0.2 mM in methanol) was added to 100 µL of methanolic solutions of 3a–j, 4, or 5, prepared as serial two-fold dilutions from the stock solution. Standards were also prepared in the same concentrations.
The percentage of DPPH scavenging was then calculated by using the following formula: % DPPH scavenging=100∗Asample+DPPH−Asample blank/ADPPH−Asolvent

[3] = test system: Aspergillus niger ATCC 6275; test: antimicrobial serial microdilution, A. niger; type: cell-based; settings: serial microdilution, 35 °C, 48 h; for MIC: 96-well plates, max 2% DMSO
Protocol: (§1) The in vitro antifungal and antimicrobial activities were determined by testing the Schiff bases against the fungi Saccharomyces cerevisiae, Candida albicans, and Aspergillus niger and the bacteria Staphylococcus aureus, Enterococcus faecalis (Gram-positive), Pseudomonas aeruginosa, and Escherichia coli (Gram-negative).
(§2) The bacterial inoculum was prepared by emulsifying overnight colonies from an agar medium in broth (Mueller–Hinton broth). The suspensions were adjusted to a final organism density of 5 × 10^5 colony former units (cfu)/mL. […] The emulsifying of A. niger cultures was done by pouring 5 mL of saline and 0.1% of polysorbate 80 over the Petri dishes. Then, 100 µL of this suspension were diluted in 5 mL of saline and adjusted to an optical density of 0.1 at 530 nm. For S. cerevisiae, fresh exponential YPAD (yeast extract 1%, peptone 2%, adenine 0.004%, […]) cultures were adjusted to an optical density of 0.5 at 600 nm, and then diluted to the equivalent of 1 × 10^4 cells/mL (10^−3 dilution). Stock solutions of Schiff bases were prepared by dissolving them in DMSO at 10 mg/mL. […] The range of concentrations used was empirically selected for each organisms and the Schiff base. Drug sensitivities were assayed by serial dilutions in 96-well plates as previously described. A row with media and cells but without drug was the positive control. The blank was done by preparing a row with media and drugs, but without cells. Plates were fitted with a tight lid before incubation to prevent desiccation. […] The minimum bactericidal concentration (MBC) and fungicidal concentration (MFC) were determined by spreading 100 µL of culture from each well onto a plate (Mueller–Hinton agar for bacteria, Sabouraud dextrose agar for fungi except S. cerevisiae, and YPAD for S. cerevisiae).

[4] = test system: promastigotes from L. mexicana (M379); test: leishmanicidal activity, MTT colorimetric assay; type: cell-based; settings: Leishmania mexicana, 48 h exposure, 1% DMSO
Protocol: Leishmanicidal activities of all Schiff bases were evaluated by measuring promastigote mitochondrial activity using MTT colorimetric assay as described previously. […] The medium was renewed every four days. Parasite density was determined in a Neubauer chamber.
Into each well of a 96-well cell culture dish was dispensed 1 × 10^6 parasites. A stock solution of each of the Schiff Base was prepared in DMSO, and serial dilutions were added to the parasite suspension, keeping the solvent concentration at 1%. The final volume was 100 µL for each well and triplicate conditions were carried out. Pentamidine treatment (100 µg/mL) and untreated parasites were used as positive control and negative control, respectively. After exposure to the compounds for 48 h in culture medium, 10 µL of a solution of 5 mg/mL MTT dissolved in PBS was added to each well. […] Later, the plate was centrifuged at 4400 rpm for 10 min and the culture medium was then aspirated. Next, 100 µL of DMSO were added into each well to solubilize the formazan and the plate was shaken for 5 min. The colored formazan salt was measured by recording changes in absorbance at 570 nm using a microplate reader, a BioTek Synergy HT spectrophotometer. A reference wavelength of 630 nm was used to subtract background. Optical densities were analyzed as the quantity of formazan is directly proportional to the number of viable parasites. Data were analyzed with the statistical software GraphPad Prism.

[5] = test system: Candida albicans ATCC 10231; test: antimicrobial serial microdilution, C. albicans; type: cell-based; settings: serial microdilution, 35 °C, 48 h
Protocol: as §1, §2

[6] = test system: Escherichia coli ATCC 25922; test: antimicrobial serial microdilution, E. coli; type: cell-based; settings: serial microdilution, 37 °C, 24 h
Protocol: as §1, §2

[7] = test system: S. cerevisiae (backgrounds W303 and BY4741); test: antimicrobial serial microdilution, S. cerevisiae; type: cell-based, Saccharomyces cerevisiae; settings: 48 h; for MIC / IC50: Saccharomyces cerevisiae; for MIC: read-out: MIC S. cerevisiae; for NIC S. cerevisiae: noninhibitory concentration
Protocol: as §1, §2

P. aeruginosa ATCC 27853 = test: antimicrobial serial microdilution, P. aeruginosa; type: cell-based; settings: Pseudomonas aeruginosa, ATCC27853, 37 °C, 24 h
Protocol: as §1, §2

[8] = test system: Staphylococcus aureus ATCC 29213; test: antimicrobial serial microdilution, S. aureus; type: cell-based; settings: serial microdilution, 37 °C, 24 h
Protocol: as §1, §2

[9] = test system: Enterococcus faecalis ATCC 29212; test: antimicrobial serial microdilution, E. faecalis; type: cell-based; settings: serial microdilution, 37 °C, 24 h
Protocol: as §1, §2

RAW 264.7 cells = test: cell viability, MTT dye assay; type: cell-based, murine; settings: 48 h
Protocol: The specificity and selectivity for the pathogen target is a key point for any potential drug.
The medium was renewed once a week. The viability was determined using MTT (thiazolyl blue tetrazolium bromide) dye assay as described previously for leishmanicidal activity assessment, with some variations. Here, 5 × 10^4 cells/well in a final volume of 100 µL were deposited into a 96-well plate in triplicate. Saponin (2 and 4 mg/mL) and untreated cells were used as the positive control and negative control, respectively. Schiff bases were dissolved in DMSO to obtain different serial concentrations (0.01–2000 µM). […] Cells were pelleted by centrifugation at 4400 rpm for 10 minutes and the media was removed. Next, 100 µL/well of DMSO were added and the absorbance at 570 nm was recorded. A reference wavelength of 630 nm was used for background subtraction.

[10] = Staphylococcus aureus, ATCC29213
[11] = Enterococcus faecalis, ATCC29212

SMILES | IARC: group of classification of IARC [1] | IC50 [2] [µM] | MIC ([3]; Aspergillus niger, ATCC6275) [µg/mL] | IC50 [4] [µM] | MIC ([5]; Candida albicans, ATCC10231) [µg/mL] | MIC ([6]; Escherichia coli, ATCC25922) [µg/mL] | MIC (P. aeruginosa ATCC 27853) [µg/mL] | MIC [8, 10] [µg/mL] | MIC [9, 11] [µg/mL] | other results
O=c1[nH]cc(F)c(=O)[nH]1 [Fluorouracil] | 3 |  |  |  |  |  |  |  |  | 
O=c1c(O)c(-c2ccc(O)c(O)c2)oc2cc(O)cc(O)c12 [quercetin, reference compound] |  | 7.3 ± 1 |  |  |  |  |  |  |  | 
COc1cc(C=Nc2c(C)n(C)n(-c3ccccc3)c2=O)cc(OC)c1O [Compound 3j, 4-(4-Hydroxy-3,5-dimethoxybenzylideneamino)-1,5-dimethyl-2-phenyl-1H-pyrazol-3(2H)-one] |  | 15.7 ± 3.2 | > 200 | > 200 | > 200 | > 200 | > 200 | > 200 | > 200 | melting point: 259.2 to 260.7 °C; MIC ([7]; serial microdilution, 35 °C): > 200 µg/mL
C[C@@H](c1ncncc1F)[C@](O)(Cn1cncn1)c1ccc(F)cc1F [VR, voriconazole, reference compound] |  |  | 1.2 ± 0.05 (≈ 3.44 µM) |  | 29.7 ± 3.52 (≈ 85 µM) |  |  |  |  | IC50 ([3]; Aspergillus niger, ATCC6275): 0.2 µg/mL (≈ 0.573 µM); NIC A. niger ([3]; noninhibitory concentration): 0.05 ± 0.01 µg/mL; IC50 ([5]; Candida albicans, ATCC10231): 0.9 µg/mL (≈ 2.58 µM); NIC C. albicans ([5]; noninhibitory concentration): 0.00 ± 0.00 µg/mL
CN(Cc1cnc2nc(N)nc(N)c2n1)c1ccc(C(=O)N[C@@H](CCC(=O)O)C(=O)O)cc1 [Methotrexate] | 3 |  |  |  |  |  |  |  |  | 
Cc1c(N=Cc2ccc(O)c(O)c2)c(=O)n(-c2ccccc2)n1C [Compound 3i, 4-(3,4-Dihydroxybenzylideneamino)-1,5-dimethyl-2-phenyl-1H-pyrazol-3(2H)-one] |  | 18.9 ± 2.4 | > 200 | > 200 | > 200 | > 200 | > 200 | > 200 | > 200 | % Live Cells (RAW 264.7 cells; RAW 264.7, exposure to 400 µM): 34.4 ± 2.4%; MIC ([7]; serial microdilution, 35 °C): > 200 µg/mL
O=C(O)/C=C/c1ccc(O)c(O)c1 [caffeic acid, reference compound] |  | 16.2 ± 2.4 |  |  |  |  |  |  |  | 
CN[C@@H]1[C@@H](O)[C@@H](O[C@@H]2[C@@H](O)[C@H](O[C@H]3O[C@H]([C@@H](C)O)[C@@H](O)[C@H](O)[C@H]3N)[C@@H](N)C[C@H]2N)OC[C@]1(C)O [GN, geneticin, reference compound] |  |  |  |  |  |  |  |  |  | IC50 ([7]; read-out: IC50 S. cerevisiae): 59.9 µg/mL (≈ 121 µM); MIC [7]: 93.7 ± 0.9 µg/mL (≈ 189 µM); NIC S. cerevisiae ([7]; serial microdilution, 35 °C): 44.5 ± 1.7 µg/mL
O=C(O)c1cn(C2CC2)c2cc(N3CCNCC3)c(F)cc2c1=O [CP, ciprofloxacin, reference compound] |  |  |  |  |  | 0.15 ± 0.009 (≈ 0.453 µM) | 0.47 ± 0.1 (≈ 1.42 µM) | 0.44 ± 0.09 (≈ 1.33 µM) | 1.15 ± 0.42 (≈ 3.47 µM) | IC50 ([6]; Escherichia coli, ATCC25922): 0.07 µg/mL (≈ 0.211 µM); NIC E. coli ([6]; noninhibitory concentration): 0.06 ± 0.003 µg/mL; IC50 (P. aeruginosa ATCC 27853): 0.94 µg/mL (≈ 2.84 µM); IC50 [8, 10]: 0.1 µg/mL (≈ 0.302 µM); NIC S. aureus ([8]; noninhibitory concentration): 0.06 ± 0.02 µg/mL; IC50 [9, 11]: 0.49 µg/mL (≈ 1.48 µM); NIC E. faecalis ([9]; noninhibitory concentration): 0.30 ± 0.07 µg/mL
Cc1c(/N=C/c2ccco2)c(=O)n(-c2ccccc2)n1C [Compound 4, 4-(2-furfurilideneamino)-1,5-dimethyl-2-phenyl-1H-pyrazol-3(2H)-one] |  | > 200 | > 200 | > 200 | > 200 | > 200 | > 200 | > 200 | > 200 | % Live Cells (RAW 264.7 cells; RAW 264.7, exposure to 400 µM): 23.8 ± 3.4%; MIC ([7]; serial microdilution, 35 °C): > 200 µg/mL
COc1cc([C@@H]2c3cc4c(cc3[C@@H](O[C@@H]3O[C@@H]5CO[C@@H](C)O[C@H]5[C@H](O)[C@H]3O)[C@H]3COC(=O)[C@H]23)OCO4)cc(OC)c1O [Etoposide] | 1 |  |  |  |  |  |  |  |  | 
C[C@@H]1[C@H](O)[C@@H](C)/C=C/C=C/C=C/C=C/C=C/C=C/C=C/[C@H](O[C@@H]2O[C@H](C)[C@@H](O)[C@H](N)[C@@H]2O)C[C@@H]2O[C@](O)(C[C@@H](O)C[C@@H](O)[C@H](O)CC[C@@H](O)C[C@@H](O)CC(=O)O[C@H]1C)C[C@H](O)[C@H]2C(=O)O [AP, amphotericin, reference compound] |  |  |  | 0.18 ± 0.07 |  |  |  |  |  | 
COc1ccc(C=Nc2c(C)n(C)n(-c3ccccc3)c2=O)cc1 [Compound 3c, 4-(4-Methoxybenzylideneamino)-1,5-dimethyl-2-phenyl-1H-pyrazol-3(2H)-one] |  | > 200 | > 200 | > 200 | > 200 | > 200 | > 200 | > 200 | > 200 | % Live Cells (RAW 264.7 cells; RAW 264.7, exposure to 400 µM): 26.1 ± 1.9%; MIC ([7]; serial microdilution, 35 °C): > 200 µg/mL
Cc1c(N=Cc2cccc([N+](=O)[O-])c2)c(=O)n(-c2ccccc2)n1C [Compound 3g, 4-(3-Nitrobenzylideneamino)-1,5-dimethyl-2-phenyl-1H-pyrazol-3(2H)-one] |  | > 200 | > 200 | > 200 | > 200 | > 200 | > 200 | > 200 | > 200 | % Live Cells (RAW 264.7 cells; RAW 264.7, exposure to 300 µM (limited solubility)): 22.1 ± 0.6%; IC50 ([7]; serial microdilution, 35 °C, read-out: IC50 S. cerevisiae (converted)): 105 µg/mL (≈ 312 µM); MIC ([7]; serial microdilution, 35 °C): 179 ± 59.5 µg/mL (≈ 533 µM); NIC S. cerevisiae ([7]; serial microdilution, 35 °C): 63.7 ± 8.7 µg/mL
O=C1O[C@H]([C@@H](O)CO)C(O)=C1O [ascorbic acid, reference compound] |  | 14.5 ± 2.2 |  |  |  |  |  |  |  | 
Cc1c(N)nc([C@H](CC(N)=O)NC[C@H](N)C(N)=O)nc1C(=O)N[C@H](C(=O)N[C@H](C)[C@@H](O)[C@H](C)C(=O)N[C@H](C(=O)NCCc1nc(-c2nc(C(=O)NCCC[S+](C)C)cs2)cs1)[C@@H](C)O)[C@@H](OC1OC(CO)C(O)C(O)C1OC1OC(CO)C(O)C(OC(N)=O)C1O)c1cnc[nH]1 (some centres unmarked) [Bleomycin] | 2B |  |  |  |  |  |  |  |  | 
N=C(N)c1ccc(OCCCCCOc2ccc(C(=N)N)cc2)cc1 [PT, pentamidine, reference compound] |  |  |  | 4.5 ± 0.46 |  |  |  |  |  | 
N.N.[Cl][Pt][Cl] [Cisplatin] | 2A |  |  |  |  |  |  |  |  | 
O=P1(N(CCCl)CCCl)NCCCO1 (centres unmarked) [Cyclophosphamide] | 1 |  |  |  |  |  |  |  |  | 
